Like-named read-outs stand apart in the source and are kept apart here.
Key:
MCF-7 cells [1] = experiment: Cell viability of MCF-7 cells after treatment at 10 and 100 µM (MTT cell proliferation assay, 24 h, normoxia); format: cell-based; settings: Homo sapiens, mean ± SD; for viability at 10 µM: MCF7, 10 µM; for viability at 100 µM: MCF7, 100 µM
Method: (§1) The cytotoxic activity of all the synthesized chalcones was tested against breast cancer cell lines using an MTT cell proliferation assay. All compounds were tested in vitro at 10 and 100 µM using the cell viability assay in MCF-7 for 24 h in normoxia (Table 1). Firstly, the cytotoxic effect of the chalcone compounds modified in ring B and with an unsubstituted ring A was tested (compounds 3–8). […] Secondly, compounds with modifications in the A and B rings (9–13) were tested.
The cell culture methodology was used with modifications. Three human breast cancer cell lines were used for this study: MCF-7 (ATCC® HTB-22™), ZR-75-1 (ATCC® CRL-1500™), MDA-MB-231 (ATCC® HTB-26™), and the non-tumorigenic MCF-10F (ATCC® CRL-10318™) cell lines. Cells were cultured in specific media according to ATCC recommendations. The incubation condition was established at 37 °C, a complete humid atmosphere, 5% CO2 and 95% […]. […]

MDA-MB-231 cells = experiment: Cytotoxic assay, IC50 in MDA-MB-231 cells; format: cell-based; settings: Homo sapiens, mean ± SD, read-out: IC50 Cell Lines MDA-MB-231
Method: as §1
(§2) The cell culture methodology was used with modifications. Three human breast cancer cell lines were used for this study: MCF-7 (ATCC® HTB-22™), ZR-75-1 (ATCC® CRL-1500™), MDA-MB-231 (ATCC® HTB-26™), and the non-tumorigenic MCF-10F (ATCC® CRL-10318™) cell lines. Cells were cultured in specific media according to ATCC recommendations. The incubation condition was established at 37 °C, a complete humid atmosphere, 5% CO2 and 95% O2.
(§3) The cytotoxic effect of the chalcone compounds was assessed in MCF-10F cells in a dose- and time-dependent manner. Cells (1 × 10^4 and 4 × 10^4) cultured under normoxic conditions were seeded in 24-well plates in quadruplicate and incubated for 4 days until 70% confluence. After this incubation period, cells were exposed to concentrations of the synthesized compounds dissolved in ethanol (50%) at concentrations ranging from 0 to 96.8 µg/mL (dissolved in 0.5% DMSO). Doxorubicin was used as the control drug, and for all data a p < 0.05 value was considered statistically significant. Cell viability was assessed using a neutral red uptake assay after 24 h of treatment.

ZR-75-1 cells = experiment: Cytotoxic assay, IC50 in ZR-75-1 cells; format: cell-based; settings: Homo sapiens, mean ± SD, read-out: IC50 Cell Lines ZR-75-1
MCF-10F cells = experiment: Cytotoxic assay, IC50 in non-tumorigenic MCF-10F cells; format: cell-based, human; settings: MCF-10F non-tumorigenic cells, mean ± SD, read-out: IC50 Cell Lines MCF-10F
Method: as §2, §3

MCF-7 cells [2] = experiment: Cytotoxic assay, IC50 in MCF-7 cells; format: cell-based; settings: Homo sapiens, MCF7, mean ± SD, read-out: IC50 Cell Lines MCF-7
MCF-7 cells [3] = system: MCF-7 cells; set-up: method as in PMID 27814565; settings: read-out: IC50 on the growth of the MCF-7 cells; cited from earlier work

SMILES: CC(C)=CCc1cc(C(=O)/C=C/c2ccc(N(C)C)cc2)ccc1O [Compound 11]
- viability at 10 µM (MCF-7 cells [1]): 42 ± 4.3%
- viability at 100 µM (MCF-7 cells [1]): 42.4 ± 3.9%
- IC50 (MDA-MB-231 cells): 72.3 ± 2.33 µM
- IC50 (ZR-75-1 cells): 78.2 ± 6.87 µM
- IC50 (MCF-10F cells; Homo sapiens, MCF-10F): 78.4 ± 21.3 µM
- IC50 (MCF-7 cells [2]): > 80 µM

SMILES: CC(=O)c1ccc(O)c(CC=C(C)C)c1 [Compound 1b]
- IC50 (MDA-MB-231 cells): 74 ± 8.72 µM
- IC50 (ZR-75-1 cells): 61.6 ± 14.1 µM
- IC50 (MCF-10F cells; Homo sapiens, MCF-10F): 79.5 ± 9.9 µM
- IC50 (MCF-7 cells [2]): 79.4 ± 12.2 µM

SMILES: O=C(/C=C/c1ccccc1)c1ccccc1 [Compound 3]
- viability at 10 µM (MCF-7 cells [1]): 81.3 ± 9.4%
- viability at 100 µM (MCF-7 cells [1]): 65.2 ± 5.7%
- IC50 (MDA-MB-231 cells): > 80 µM
- IC50 (ZR-75-1 cells): > 80 µM
- IC50 (MCF-10F cells; Homo sapiens, MCF-10F): > 80 µM
- IC50 (MCF-7 cells [2]): > 80 µM

SMILES: COc1cc(OC)c(OC)cc1/C=C/C(=O)c1ccc(O)c(CC=C(C)C)c1 [Compound 13]
- viability at 10 µM (MCF-7 cells [1]): 32.4 ± 4.5%
- viability at 100 µM (MCF-7 cells [1]): 3.1 ± 0.4%
- IC50 (MDA-MB-231 cells): 18.1 ± 1.65 µM
- IC50 (ZR-75-1 cells): 8.75 ± 2.01 µM
- IC50 (MCF-10F cells; Homo sapiens, MCF-10F): 95.1 ± 1.97 µM
- IC50 (MCF-10F cells): 75.1 ± 12 µM
- IC50 (MCF-7 cells [2]): 3.3 ± 0.92 µM

SMILES: COc1cc(OC)c(OC)cc1/C=C/C(=O)c1ccccc1 [Compound 8]
- viability at 10 µM (MCF-7 cells [1]): 100 ± 12.6%
- viability at 100 µM (MCF-7 cells [1]): 94.4 ± 11.6%
- IC50 (MDA-MB-231 cells): > 80 µM
- IC50 (ZR-75-1 cells): > 80 µM
- IC50 (MCF-10F cells; Homo sapiens, MCF-10F): > 80 µM
- IC50 (MCF-7 cells [2]): > 80 µM

SMILES: COc1cccc2c1C(=O)c1c(O)c3c(c(O)c1C2=O)C[C@@](O)(C(=O)CO)C[C@@H]3O[C@H]1C[C@H](N)[C@H](O)[C@H](C)O1 [Doxorubicin, reference compound]
- viability at 10 µM (MCF-7 cells [1]): 49.3 ± 2.2%
- viability at 100 µM (MCF-7 cells [1]): 57.6 ± 2.9%
- IC50 (MDA-MB-231 cells): 47.6 ± 5.74 µM
- IC50 (ZR-75-1 cells): 79.8 ± 11 µM
- IC50 (MCF-10F cells; Homo sapiens, MCF-10F): 83.9 ± 8.99 µM
- IC50 (MCF-7 cells [2]): 111 ± 8.95 µM

SMILES: COc1cc(/C=C/C(=O)c2ccccc2)ccc1O [Compound 6]
- viability at 10 µM (MCF-7 cells [1]): 47 ± 4.9%
- viability at 100 µM (MCF-7 cells [1]): 4.9 ± 0.6%
- IC50 (MDA-MB-231 cells): 52 ± 4.53 µM
- IC50 (ZR-75-1 cells): 43.2 ± 6.58 µM
- IC50 (MCF-10F cells; Homo sapiens, MCF-10F): 72.6 ± 10.3 µM
- IC50 (MCF-7 cells [2]): 21.6 ± 2.71 µM

SMILES: C=C(C)C(O)Cc1c(O)ccc(C(=O)/C=C/c2ccc(O)c(CC=C(C)C)c2)c1O (stereo not shown) [Paratocarpin E]
- IC50 (MCF-7 cells [3]): 19.6 µM

SMILES: COc1ccc(/C=C/C(=O)c2ccccc2)cc1 [Compound 4]
- viability at 10 µM (MCF-7 cells [1]): 74.5 ± 10.3%
- viability at 100 µM (MCF-7 cells [1]): 55.1 ± 5.1%
- IC50 (MDA-MB-231 cells): > 80 µM
- IC50 (ZR-75-1 cells): > 80 µM
- IC50 (MCF-10F cells; Homo sapiens): > 80 µM
- IC50 (MCF-7 cells [2]): > 80 µM

SMILES: COc1ccc(/C=C/C(=O)c2ccc(O)c(CC=C(C)C)c2)cc1 [Compound 10]
- viability at 10 µM (MCF-7 cells [1]): 73.7 ± 6.7%
- viability at 100 µM (MCF-7 cells [1]): 62.3 ± 7.6%
- IC50 (MDA-MB-231 cells): 78 ± 4.34 µM
- IC50 (ZR-75-1 cells): > 80 µM
- IC50 (MCF-10F cells; Homo sapiens, MCF-10F): > 80 µM
- IC50 (MCF-7 cells [2]): > 80 µM

SMILES: COc1cc(/C=C/C(=O)c2ccc(O)c(CC=C(C)C)c2)ccc1O [Compound 12, (E)-1-(4-hydroxy-3-(3-methylbut-2-en-1-yl)phenyl)-3-(4-hydroxy-3-methoxyphenyl)prop-2-en-1-one]
- viability at 10 µM (MCF-7 cells [1]): 10.3 ± 0.6%
- viability at 100 µM (MCF-7 cells [1]): 3.6 ± 0.9%
- IC50 (MDA-MB-231 cells): 6.12 ± 0.84 µM
- IC50 (ZR-75-1 cells): 9.4 ± 1.74 µM
- IC50 (MCF-10F cells; Homo sapiens, MCF-10F): 95.8 ± 1.52 µM
- IC50 (MCF-10F cells): 75.8 ± 11.5 µM
- IC50 (MCF-7 cells [2]): 4.19 ± 1.04 µM

SMILES: CC(C)=CCc1cc(C(=O)/C=C/c2ccccc2)ccc1O [Compound 9]
- viability at 10 µM (MCF-7 cells [1]): 93.8 ± 7.9%
- viability at 100 µM (MCF-7 cells [1]): 82.5 ± 6.1%
- IC50 (MDA-MB-231 cells): > 80 µM
- IC50 (ZR-75-1 cells): > 80 µM
- IC50 (MCF-10F cells; Homo sapiens, MCF-10F): > 80 µM
- IC50 (MCF-7 cells [2]): > 80 µM

SMILES: CN(C)c1ccc(/C=C/C(=O)c2ccccc2)cc1 [Compound 5]
- viability at 10 µM (MCF-7 cells [1]): 47.6 ± 3.2%
- viability at 100 µM (MCF-7 cells [1]): 52.4 ± 4.3%
- IC50 (MDA-MB-231 cells): 79.8 ± 9.31 µM
- IC50 (ZR-75-1 cells): 76.5 ± 12.6 µM
- IC50 (MCF-10F cells; Homo sapiens, MCF-10F): > 80 µM
- IC50 (MCF-7 cells [2]): > 80 µM

SMILES: O=C(/C=C/c1ccc2c(c1)OCO2)c1ccccc1 [Compound 7]
- viability at 10 µM (MCF-7 cells [1]): 43.5 ± 3.4%
- viability at 100 µM (MCF-7 cells [1]): 38.6 ± 4.3%
- IC50 (MDA-MB-231 cells): > 80 µM
- IC50 (ZR-75-1 cells): > 80 µM
- IC50 (MCF-10F cells; Homo sapiens, MCF-10F): > 80 µM
- IC50 (MCF-7 cells [2]): > 80 µM

Reference: paper PMC9318862, “Cytotoxic Effects on Breast Cancer Cell Lines of Chalcones Derived from a Natural Precursor and Their Molecular Docking Analysis” (Molecules, 2022)
